The experiment has as its system CEM cells HIV-1 protection, formazan growth assay. The experiment in a line: NCI AIDS Antiviral Assay. To be noted: for IC50: measured here: growth of uninfected CEM cells. The procedure, abridged:
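Screen of anti-HIV-1 activity in human CEM cells using a formazan-based growth measurement at five drug concentrations. Hits with 50% or greater protection were repeated, and confirmation required reproducible complete protection.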

This is an account of results in PubChem BioAssay AID179 (DTP/NCI, 2004).

Several values for one entry are separate records, joined by “and”; a condition that tells them apart may be missing. Equal values may be shown once. Activity calls are given as the source filed them.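 How the source made its calls: active means compounds giving half or more protection of infected cells from virus-caused growth loss, again on retest; inactive means the rest.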 Where a SMILES comes first, the peptide text is derived from it. The star is where a group is joined. Boc = CC(C)(C)OC(=O)*; OBn = c1ccc(CO*)cc1

For `O=C1CC(c2c(-c3ccccc3)[nH]c3ccccc23)C(=O)N1` (stereo not given), the result was inactive.

As usually defined, the EC50 is the concentration at which the effect is half-maximal. The term IC50 denotes the point on the concentration scale where inhibition reaches its midpoint. In the case of `N#Cc1c(N)c(C(=O)Nc2ccccc2)n2c1CCC2`, the EC50 is > 200 µM and the IC50 is > 200 µM.

For the compound `COc1ccc(-n2[nH]c3c(cnc4ccccc43)c2=O)cc1`, the EC50 was > 200 µM and the IC50 is > 200 µM.

With `N#CC(c1ccccc1)N(CCc1ccccc1)C(=O)c1ccc(C(=O)N(CCc2ccccc2)C(C#N)c2ccccc2)cc1` (stereo not given), the EC50 was > 200 µM and the IC50 stood at 28.2 µM.

For the compound `CCO/C=N/C1=C(C#N)C(c2ccc(OC)c(OC)c2)c2c(-c3ccccc3)nn(-c3ccccc3)c2O1` (stereo not given), the EC50 is > 100 µM and the IC50 is 14.1 µM.

`C=CC1CN(C(=O)OCC)N(C(=O)OCC)C1CCc1ccccc1` (stereo not given): the EC50 is > 200 µM and the 50% inhibitory concentration (IC50) came out at 72.4 µM.

In the case of `COc1ccc2c(c1)-c1nc(=O)n(CCCN(C)C)c3ccc([N+](=O)[O-])c(c13)N2`, the EC50 is > 1 µM and the IC50 came to 0.355 µM.

As to `COC1=CC(=O)[C@]2(C)[C@H](C1=O)C(C)[C@H]2c1ccc(OC)cc1` (stereo not given in full), the EC50 is > 87.1 µM and the IC50 is > 87.1 µM.

Regarding `CCOC(=O)/C(=C/c1ccc(Cl)cc1)N(CC)CC`, the EC50 is > 126 µM and the IC50 is > 126 µM.

On to `c1ccc2c(c1)oc1cc3c(cc12)n1nnnc1c1cccn31`, for which the EC50 is > 200 µM and the IC50 was > 200 µM.

In the case of `O=C(O)c1ccc(NC(=O)C2C(=O)C(=O)N(c3ccc(C(=O)O)cc3)C2=O)cc1` (stereo not given), the EC50 was > 47.9 µM and the IC50 is > 47.9 µM.

Regarding `C=CCOCC(O)CNCC(O)COCC=C` (stereo not given), the EC50 was > 200 µM and the IC50 was > 200 µM.

On to `Cc1cc(C)nc(NS(=O)(=O)c2ccc(NC(=O)c3ccc(Cl)c4c(Nc5ccc(S(=O)(=O)Nc6nc(C)cc(C)n6)cc5)c5ccccc5nc34)cc2)n1`, for which the EC50 is > 45.7 µM and the 50% inhibitory concentration (IC50) was found to be 24.5 µM.

In the case of `COc1cc(NCC2COc3c(ccc(OC)c3OC)C2=O)c([N+](=O)[O-])cc1OC` (stereo not given), the EC50 was > 200 µM and the IC50 turned out to be 186 µM.

With `Cc1ccc2c(c1)Nc1ccccc1P2(=O)O`, the EC50 is > 200 µM and the IC50 was > 200 µM.

On to `CC(=S)N/C=C(\C#N)S(=O)(=O)c1ccc(C)cc1`, for which the EC50 was > 200 µM and the IC50 was > 200 µM.

As for `Cc1cc([C@H](C#N)c2nc3ccccc3[nH]2)nc(Cl)n1`, the EC50 was > 200 µM and the concentration for half-maximal inhibition (IC50) is 22.4 µM.

In the case of `OC1[C@H](O)CN(OCc2ccccc2)C[C@@H]1O` (stereo not given in full), the EC50 is > 200 µM and the IC50 is > 200 µM.

As to `S=C(Nc1ccc(Br)cn1)Nc1ccccc1-c1ccccc1`, the EC50 was > 2 µM and the half-maximal inhibitory concentration (IC50) stood at 0.389 µM.

Turning to `COC(=O)C(=O)CC(=O)CCn1ncc(Cl)c(Cl)c1=O`, the EC50 was > 776 µM and the IC50 is 4.07 µM.

As for `Clc1ccc(NC2=NCCCS2)c2ccccc12`, the EC50 was > 200 µM and the IC50 came out at 42.7 µM.

Take `N[C@@H]1c2c(I)sc(I)c2C(=O)[C@@H]1O`: the EC50 was > 200 µM and the IC50 was 5.25 µM.

As to `COc1cc(/C=C/C(=O)/C=C/c2cc(OC)c(OC)c(OC)c2)cc(OC)c1OC`, the EC50 is > 200 µM and the IC50 is 0.0977 µM.

As to `C[C@]12CC(O)C3[C@@H](CC=C4CC(O)CC[C@@]43C)C1CCC2O` (stereo not given in full), the outcome was inactive.

With `c1ccc2c(c1)cnn1cnnc21`, the EC50 is > 1480 µM and the IC50 is 661 µM.

Regarding `O=C1C2C=CC(C3C=CC2N(Cc2ccccc2)C3=O)N1Cc1ccccc1`, the outcome was inactive.

Turning to `Nc1ccnc2c1ncn2[C@H]1C[C@H](O)[C@@H](CO)O1`, the EC50 is > 200 µM and the IC50 was > 200 µM.

Regarding `O=c1n(-c2ccccc2)c(=O)n2n1C1C3C4C5C3C2C5(F)C41` (stereo not given), the EC50 is > 200 µM and the IC50 was > 200 µM.

Regarding `Clc1nc2nc3ccccc3nc2nc1Cl`, the EC50 was > 100 µM and the IC50 was found to be 77.6 µM.

As for `Nc1ccn(C2CC3OCC3O2)c(=O)n1` (stereo not given), the EC50 was > 200 µM and the IC50 was > 200 µM.

As to `Cc1c(N/C=C(\C#N)C(=O)c2ccc(Cl)cc2)c(=O)n(-c2ccccc2)n1C`, the EC50 is > 200 µM and the IC50 came to 72.4 µM.

Regarding `CC(C)CC(NC(=O)C(CC(=O)O)NC(=O)C(CO)NC(=O)C(CCCCN)NC(=O)C1CCCN1C(=O)C(CC(C)C)NC(=O)C(CO)NC(=O)CNC(=O)C(N)CCC(=O)O)C(=O)NC(CCCN=C(N)N)C(=O)O` (stereo not given) (H-EGSLPKSDLR-OH; configuration not given here), the EC50 was > 56.2 µM and the IC50 was > 56.2 µM.

On to `O=S1(=O)CCc2ccccc2C(Br)C1` (stereo not given), for which the EC50 was > 200 µM and the IC50 is > 200 µM.

For `CCCCCC(C)(O)C1=NCCN1` (stereo not given), the EC50 is > 200 µM and the IC50 was > 200 µM.

Take `O=C(c1ccccc1)[C@H]1Nc2ccc(Cl)cc2[C@H]2OCCC[C@@H]12`: the EC50 is > 11.5 µM and the half-maximal inhibitory concentration (IC50) was > 11.5 µM.

As to `CC(C)[Si]1(C(C)C)OCC2OC(N3C(=O)NC(=O)C[C@@H]3C(O)c3ccccc3)CC2O[Si](C(C)C)(C(C)C)O1` (stereo not given in full), the EC50 was > 200 µM and the IC50 was found to be 10.5 µM.

As to `CCc1oc2ccc(OC)c3c2c1C=CC=C3`, the outcome was inactive.

Take `NC(Cc1ccc(OCc2ccccc2)cc1)C(=O)NC(Cc1ccccc1)C(=O)Oc1c(Cl)c(Cl)c(Cl)c(Cl)c1Cl` (stereo not given): the EC50 is > 200 µM and the concentration for half-maximal inhibition (IC50) came out at 28.8 µM.

Regarding `O=C1CC(O)CC(=O)C1=C(O)CCCCCCCCCCc1ccccc1` (stereo not given), the EC50 was > 19.5 µM and the IC50 is > 19.5 µM.

On to `O=C1CC23CCC12CCCC3=O` (stereo not given), for which the EC50 was > 550 µM and the IC50 is > 550 µM.

With `COC(=O)[C@H](Cc1cn(C(c2ccccc2)(c2ccccc2)c2ccccc2)cn1)NCc1cc(N(C)C)cc(CN[C@@H](Cc2cn(C(c3ccccc3)(c3ccccc3)c3ccccc3)cn2)C(=O)OC)n1`, the EC50 is > 100 µM and the concentration for half-maximal inhibition (IC50) worked out at 5.89 µM.

With `CN(C)CCNC(=O)Cn1cc([N+](=O)[O-])c(=O)c2ccccc21`, the EC50 was > 200 µM and the IC50 was > 200 µM.

Take `CC(=O)OCC1OC(n2c(Br)nc3c2c(=O)n(C)c(=O)n3C)C(OC(C)=O)C1OC(C)=O` (stereo not given): the EC50 is > 200 µM and the IC50 is 69.2 µM.

For the compound `COC1CC(C)C(OC)c2cc(O)cc(c2O)NC(=O)/C(C)=C/C=C\C(C)C(OC(N)=O)/C(C)=C\C(C)C1OC` (stereo not given), the EC50 was > 170 µM and the IC50 was 0.676 µM.

For the compound `CCCc1cc(=O)oc2c3c(cc(OC)c12)O[C@H](C)[C@@H](C)[C@@H]3O`, the EC50 was > 200 µM.

For the compound `O=C(O)c1cc2c(cc1CC(Cc1ccc3c(c1)CCC3)C(=O)O)CCC2` (stereo not given), the EC50 is > 200 µM and the IC50 turned out to be 105 µM.

On to `Cc1cc(=O)oc2c(CNC(Cc3ccccc3)C(=O)O)c(O)ccc12` (stereo not given), for which the EC50 is > 200 µM and the IC50 is > 200 µM.

Regarding `CC1(C)CC(=O)C2=C(C1)Nn1c(nnc1C(F)(F)F)S2`, the EC50 was > 813 µM and the IC50 is 355 µM.

`COC(=O)NC1(NC(=O)OC)NC(=O)c2cc(OC)c(OC)cc2N1`: the EC50 was > 200 µM and the IC50 was determined as 12.9 µM.

In turn, `[N-]=[N+]=NC1CC(n2ccc(=O)[nH]c2=O)OC1CO` (stereo not given) yielded an EC50 of 2.88 µM and an IC50 of 20 µM.

Turning to `C[n+]1cccc2ccc(OC(=O)c3ccccc3)cc21`, the outcome was inactive.

Turning to `C=CCNC(=S)N1CC(C)C(=O)Nc2ccccc21` (stereo not given), the EC50 was > 661 µM and the IC50 is > 661 µM.

In the case of `COc1ccc(/C=C(/C#N)C(N)=O)c(OC)c1`, the EC50 is > 200 µM and the IC50 amounted to 60.3 µM.

For `CC(C)C(NC(=O)OC(C)(C)C)C(=O)N1CCCC1C(=O)OCc1ccccc1` (stereo not drawn) (Boc-Val-Pro-OBn; configuration not given here), the EC50 was > 200 µM and the IC50 worked out at 123 µM.

For the compound `CCN(CC)CCOc1ccc(/C(C#N)=C/c2ccc(SC(C)C)cc2)cc1`, the EC50 was > 100 µM and the half-inhibitory concentration (IC50) amounted to 1.41 µM.

For the compound `CC1(C)CCC2=C(O1)C(=O)c1ccccc1C2=O`, the EC50 is > 200 µM; the IC50 was 18.2 µM and 14.5 µM.

For `CC(C)(C)[Si](C)(C)OCC1OC(n2cnc3c(N)ncnc32)C(O[Si](C)(C)C(C)(C)C)C1O[Si](C)(C)C(C)(C)C` (stereo not given), the EC50 was > 200 µM and the IC50 turned out to be 44.7 µM.

On to `CCOc1ccc(N=Nc2ccc(N)cc2N)cc1`, for which the EC50 was > 200 µM and the IC50 came to 107 µM.

On to `Cc1ccc2c(ccc(/C=C/c3ccc(O)c4ncccc34)[n+]2C)c1`, for which the EC50 is > 28.8 µM and the IC50 worked out at 5.89 µM.

Consider `c1ccc(COCC2OC3c4ccccc4COC3C2OCc2ccccc2)cc1` (stereo not given), for which the outcome was inactive.

Take `CCN(CC)CP(CN(CC)CC)CN(CC)CC`: the EC50 is > 200 µM and the IC50 was determined as 126 µM.

Turning to `CCCCNC(=S)SSSC(=S)NCCCC`, the EC50 is > 200 µM and the IC50 came out at 2.75 µM.

For `Cn1cnc([N+](=O)[O-])c1Sc1nccc(=O)[nH]1`, the EC50 is > 977 µM and the 50% inhibitory concentration (IC50) was > 200 µM.

Consider `CCC(=O)c1cc(C(=O)C(=S)SC)cc(C(=O)C(=S)SC)c1`, for which the EC50 was 20 µM and the half-maximal inhibitory concentration (IC50) was 30.9 µM.

`O=C1C(NS(=O)(=O)c2ccccc2)=C(n2ccnc2)C(=O)c2ccccc21`: the EC50 was > 200 µM and the concentration for half-maximal inhibition (IC50) turned out to be 91.2 µM.

Take `COC1OC(Cn2c(C)nc(Br)c2Br)C(O)C(O)C1O` (stereo not given): the EC50 was 33.9 µM and the IC50 is > 200 µM.

With `OCc1ccccc1C1CSCSC1`, the EC50 was > 219 µM and the IC50 is > 219 µM.

Turning to `Cc1c(-c2ccc(N)cc2)c(=O)oc2cc(O)ccc12`, the EC50 was > 200 µM and the IC50 is > 200 µM.

As to `CN1COCc2cc3cc4c(cc3nc21)OCCO4`, the EC50 is > 200 µM and the IC50 was 97.7 µM.

Turning to `CCOC(=O)c1ccc(CS(=O)c2ccccc2)c([N+](=O)[O-])c1` (stereo not given), the EC50 was > 204 µM and the IC50 came out at 3.47 µM.

With `c1cnc2c(c1)Oc1nc3ccccc3nc1S2`, the EC50 was > 91.2 µM and the IC50 amounted to 14.5 µM.
